Earlier results on one compound are cited in patent US20140284468A1, “Cancer patient selection for administration of therapeutic agents using mass spectral analysis of blood-based samples” (Biodesix, Inc., priority 2010, published 2014).

The subject of the series is NSCLC, SCCHN, and CRC patients. The note with it: VeriStrat poor subgroup, monotherapy versus placebo.

`C#Cc1cccc(Nc2ncnc3cc(OCCOC)c(OCCOC)cc23)c1` [erlotinib]: the treatment benefit entry is listed as “essentially equivalent to treatment with placebo”.
